# Several values for one entry are separate records, joined by “and”; a condition that tells them apart may be missing. Equal values may be shown once. Read-outs that look alike come from different tables or passages of the source.
# How the values were obtained:
# [1] = Locomotor activity and rearing of treated rats; assay type: in vivo, rat; details: MPD 5-40 mg/kg s.c.
# VMAT-2 [2] = biological target: T1, VMAT-2 (Rattus norvegicus, UniProt Q01827); assay type: in vivo; design: purified striatal vesicles prepared from treated rats; from tissue; host or cells: striatum of male Sprague-Dawley rats (synaptic vesicles; P2, P3, S3 fractions); details: for Km: read-out: Km of vesicular [3H]DA uptake
# Procedure: Osmolarity was restored by addition of N-(2-hydroxyethyl)-piperazine-N′-2-ethanesulfonic acid (HEPES) and potassium tartrate 25 mM and 100 mM (final concentrations; pH 7.5 at 4° C.), respectively.
# VMAT-2 [3] = biological target: T1, VMAT-2; assay: Direct in vitro application of MPD to vesicular [3H]DA uptake; assay type: biochemical; design: purified striatal vesicles prepared from treated rats; from tissue; host or cells: striatum of male Sprague-Dawley rats (synaptic vesicles; P2, P3, S3 fractions)
# VMAT-2 [4] = assay: VMAT-2 immunoreactivity in striatal subcellular fractions of treated mice (Western blot); assay type: in vivo, mouse; details: methamphetamine 4 x 10 mg/kg s.c., 1 h
# Procedure: Fresh striatal tissue was homogenized in ice-cold 0.32 M sucrose and centrifuged (800×g for 12 min: 4° C.).
# VMAT-2 antibody was kindly donated by Dr. John Haycock at the Louisiana State University, New Orleans, La. (Antibody can be purchased from Chemicon, Temecula, Calif. and the reagent # is AB1767). Binding of VMAT-2 antibody was performed using 60 μl of whole synaptosomal, plasmalemmal membrane or vesicle subcellular fractions. Samples were added to 20 μl of loading buffer (final concentration: 2.25% SDS, 18% glycerol, 180 mM Tris Base (pH 6.8), 10% β-mercaptoethanol and bromophenol blue). Approximately 60 μg P2, 40 μg protein P3, and 20 μg protein S3 were loaded per well in a 10% SDS-polyacrylamide gel. Following electrophoresis, samples were transferred to polyvinylidene difluoride hybridization transfer membrane (New England Nuclear (NEN), Boston, Mass.). All subsequent incubation steps were performed at room temperature while shaking. Each membrane was first blocked for 2 h in 100 ml of Tris buffer saline with tween (TBST; 250 mM NaCl, 50 mM tris pH 7.4 and 0.05% tween 20) containing 5% nonfat dry milk. Each membrane was then incubated with anti-VMAT-2 antibody (1:4000 dilution) in 13 ml of TBST with 5% milk for 1 h and then washed 5 times (2×1 min wash: 3×5 min wash) in 70 ml TBST with 5% milk. The membranes then were incubated for 1 h with the goat F (ab′)2 anti-rabbit immunoglobulin antibody (Biosource International, Camarillo, Calif.) at a 1:2000 dilution in TBST with 5% milk. This secondary antibody had been affinity-isolated, preabsorbed with human immunoglobulin, and conjugated with horseradish peroxidase. The membranes were then washed 5 times (2×1 min wash: 3×5 min) with 70 ml TBST, and then developed with Renaissance Western Blot Chemiluminescence's Reagent Pus (NEN, Boston, Mass.), according to manufacturer specification. […] Bands on blots were quantified by densitometry measuring net intensity (the sum of the background-subtracted pixel values in the band area) using Kodak 1D image-analysis software.
# [5] = biological target: T2, plasmalemmal DA transporter (DAT) (Rattus norvegicus, UniProt P23977); details: rats, cited from earlier work
# T2 construct: Uptake of [^3H]DA was determined in striatal synaptosomes; from tissue; host or cells: striatum of male Sprague-Dawley rats (synaptosomes, P2)
# VMAT-2 [6] = biological target: VMAT-2 (Mus musculus, UniProt Q8BRU6); assay: [3H]DHTBZ binding in striatal vesicles prepared from treated mice; details: methamphetamine 4 x 10 mg/kg s.c., 2-h intervals, 1 and 24 h after treatment
# Procedure: Binding of [^3H]DHTBZ was performed essentially as described by Brown et al. (2001a and 2001b) Briefly, 200 μl of the synaptic vesicles preparation (˜6 μg of protein) was incubated in wash buffer in the presence of [^3H]DHTBZ (2 nM final concentration) for 10 min at 25° C. The reaction was terminated by addition of 1 ml cold wash buffer and rapid filtration through Whatman GF/P filters soaked in 0.5% polyethylenimine. Filters were washed three times with ice-cold wash buffer. Nonspecific binding was determined by co incubation with 20 μM TBZ. All protein concentrations were determined by Bio-Rad protein assay (Bio-Rad Inc.)
# VMAT-2 [7] = biological target: T1, VMAT-2; design: purified striatal vesicles prepared from treated rats; from tissue; host or cells: striatum of male Sprague-Dawley rats (synaptic vesicles; P2, P3, S3 fractions); details: rats, multiple METH; Brown et al., 2000; cited from earlier work
# [8] = MPD-treated rats, 40 mg/kg s.c., 1 h
# [9] = rats, single 15 mg/kg METH injection s.c., 1 h
# T1 sequence (Q01827 whole entry): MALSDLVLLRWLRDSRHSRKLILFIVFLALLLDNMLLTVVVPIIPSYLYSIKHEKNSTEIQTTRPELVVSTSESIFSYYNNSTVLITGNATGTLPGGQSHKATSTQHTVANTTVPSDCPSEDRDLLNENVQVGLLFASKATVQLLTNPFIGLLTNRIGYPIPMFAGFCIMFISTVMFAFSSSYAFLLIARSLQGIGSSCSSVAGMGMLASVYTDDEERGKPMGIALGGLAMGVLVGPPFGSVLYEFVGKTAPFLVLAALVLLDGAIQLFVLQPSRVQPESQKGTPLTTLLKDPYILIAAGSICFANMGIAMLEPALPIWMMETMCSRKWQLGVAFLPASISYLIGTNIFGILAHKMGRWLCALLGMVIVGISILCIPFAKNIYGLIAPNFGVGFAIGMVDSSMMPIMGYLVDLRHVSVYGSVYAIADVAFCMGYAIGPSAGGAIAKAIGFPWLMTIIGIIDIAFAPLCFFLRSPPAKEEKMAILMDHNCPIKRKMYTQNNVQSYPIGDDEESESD
# T2 sequence (P23977 whole entry): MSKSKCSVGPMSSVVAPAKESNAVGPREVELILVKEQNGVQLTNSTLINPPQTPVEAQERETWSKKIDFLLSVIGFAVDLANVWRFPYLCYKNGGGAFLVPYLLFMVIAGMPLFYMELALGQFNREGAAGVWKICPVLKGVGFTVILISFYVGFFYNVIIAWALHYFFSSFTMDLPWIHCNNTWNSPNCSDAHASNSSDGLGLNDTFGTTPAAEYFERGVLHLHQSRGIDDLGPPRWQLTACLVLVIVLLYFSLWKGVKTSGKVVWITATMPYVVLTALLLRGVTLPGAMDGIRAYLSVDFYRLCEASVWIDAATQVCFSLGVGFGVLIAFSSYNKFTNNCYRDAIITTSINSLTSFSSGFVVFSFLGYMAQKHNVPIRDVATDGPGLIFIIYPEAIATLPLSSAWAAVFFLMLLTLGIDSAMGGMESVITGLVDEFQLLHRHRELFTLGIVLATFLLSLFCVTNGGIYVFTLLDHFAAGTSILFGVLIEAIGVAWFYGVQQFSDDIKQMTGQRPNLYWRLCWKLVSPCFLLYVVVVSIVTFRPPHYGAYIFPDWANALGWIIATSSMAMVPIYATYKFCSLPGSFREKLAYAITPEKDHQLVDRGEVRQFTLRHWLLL
# Chain of VMAT-2 (Mus musculus, UniProt Q8BRU6) (Q8BRU6 whole entry): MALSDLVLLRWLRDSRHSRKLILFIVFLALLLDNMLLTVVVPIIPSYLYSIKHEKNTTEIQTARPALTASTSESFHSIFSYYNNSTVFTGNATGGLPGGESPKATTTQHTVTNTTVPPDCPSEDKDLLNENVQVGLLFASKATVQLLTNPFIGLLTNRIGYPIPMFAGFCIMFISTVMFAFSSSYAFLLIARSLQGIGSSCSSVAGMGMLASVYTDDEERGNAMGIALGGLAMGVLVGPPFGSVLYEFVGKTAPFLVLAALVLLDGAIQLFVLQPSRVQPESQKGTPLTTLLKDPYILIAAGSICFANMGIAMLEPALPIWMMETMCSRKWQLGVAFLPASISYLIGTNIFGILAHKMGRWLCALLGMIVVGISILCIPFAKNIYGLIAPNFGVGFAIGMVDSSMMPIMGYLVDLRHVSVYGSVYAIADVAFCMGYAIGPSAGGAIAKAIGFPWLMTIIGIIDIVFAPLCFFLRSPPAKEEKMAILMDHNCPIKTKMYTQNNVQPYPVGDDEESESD
structure (smiles),measurement,setting,value
"COC(=O)C(c1ccccc1)C1CCCCN1 (centres unmarked) [MPD, methylphenidate]",locomotor activity and rearing as compared with controls,[1],increased
same,transporter Vmax of vesicular [3H]DA uptake,VMAT-2 [2]; [8],2350±250 fmol/μg protein/3 min
same,Km,VMAT-2 [2]; [8],0.23 ± 0.01 µM
same,effect of MPD post-treatment on the METH-induced decrease in vesicular DA uptake,"VMAT-2 [2]; rat, in vivo",reversed
same,vesicular DA uptake after MPD treatment per se,"VMAT-2 [2]; rats, MPD 5 mg/kg s.c. injections",increased
same,vesicular [3H]DA uptake after a single MPD administration,"VMAT-2 [2]; rats, MPD 5, 10, 20, or 40 mg/kg s.c., 1 h",increases
same,reversal of the increases in vesicular [3H]DA uptake and [3H]DHTBZ binding,"VMAT-2 [2]; rats, after a 40 mg/kg MPD administration",≤ 12 h
same,onset of the increases in vesicular [3H]DA uptake and [3H]DHTBZ binding,"VMAT-2 [2]; rats, single MPD s.c.",≤ 30 min
same,IC50,"VMAT-2 [3]; in vitro direct application, n=3",19.8 ± 4 µM
same,vesicular [3H]DA uptake on direct application of MPD,"VMAT-2 [3]; in vitro, concentrations of 1 nM to 1 μM",without effect
"CN[C@@H](C)Cc1ccccc1 (racemic) [METH, methamphetamine]",VMAT-2 immunoreactivity in the membrane-associated fraction,VMAT-2 [4],increasing
same,VMAT-2 immunoreactivity in the vesicle preparation,VMAT-2 [4],decreased
same,total VMAT-2 immunoreactivity in synaptosomes,VMAT-2 [4],little effect
same,magnitude of the decrease in plasmalemmal DA uptake,"[5]; METH 4 x 10 mg/kg s.c., 2-h intervals, 1 h, Kokoshka 1998, Fleckenstein 1999, Metzger 2000",70-80%
same,recovery of plasmalemmal DA uptake after 24 h,"[5]; multiple METH, Kokoshka et al., 1998",≈ 60 % of control values
same,[3H]DHTBZ binding,VMAT-2 [6],rapidly decreased
same,persistence of the decreases in vesicular DA uptake and DHTBZ binding after treatment,"VMAT-2 [2]; rats, METH 4 x 7.5 mg/kg s.c.",at least 6 h
same,vesicular DA uptake 1 h after the last METH injection,"VMAT-2 [2]; rats, METH 4 x 7.5 mg/kg s.c., 2-h intervals",rapidly decreased
same,Vmax of vesicular [3H]DA uptake,VMAT-2 [2]; [9],607 fmol/μg protein/min
same,Km,VMAT-2 [2]; [9],0.187 µM
same,decrease in vesicular [3H]DA uptake,"VMAT-2 [2]; rats, single METH 15 mg/kg s.c., 1 h",25% and 23%
same,deficit in vesicular [3H]DA uptake 24 h after treatment,"VMAT-2 [2]; rats, single METH 15 mg/kg s.c., 24 h",recovered
same,deficit in vesicular DA uptake,VMAT-2 [7],≈ 65%
